Measured values published in a melting point compilation (Tetko et al.; mined from patent text by program, amines drawn as free bases though some values may be those of a salt).

Structure (SMILES)	melting point
CC1C[C@H]2[C@@H](O1)[C@@H](O)C(=O)N2Cc1ccccc1 (relative stereo)	98 to 101 °C
O=C(CBr)Nc1ccc(Br)cc1C(=O)O	203 to 204 °C
O=C(NCCNCc1cc2ccc(O)cc2o1)C12CC3CC(CC(C3)C1)C2	136 to 139 °C
COC(=O)Cc1ccc(OCCNC(=O)C2Cc3ccccc3N2S(=O)(=O)c2ccc(-c3cc(C(F)(F)F)ccc3OC)cc2)cc1 (configuration not stated)	61 to 64 °C
CCn1c(=O)n(O)c(=O)c2cc(F)c(N3CCN(C)CC3)cc21	132 to 134 °C
O=C(c1ccccc1)N1CCc2[nH]c3c(cnc4cc(Cl)ccc43)c2C1	275 °C
CCOC(=O)C1=C(C)NC(C)=C(C(=O)OCCN)C1c1cccc([N+](=O)[O-])c1 (configuration not stated)	137 to 139 °C
Cc1ncc(C#N)c(Nc2cccc3[nH]ccc23)c1-c1ccc(OCCCl)cc1	185 to 186 °C
CCn1c(=O)c(-c2cc(OC)cc(OC)c2)cc2cnc(S(C)=O)nc21 (configuration not stated)	114 to 116 °C
O=C(O)Cc1ccc(NCCNC(=O)C2Cc3ccccc3N2S(=O)(=O)c2ccc(-c3cc(C(F)(F)F)ccc3Cl)cc2)cc1 (configuration not stated)	110 to 118 °C
CC1c2cc(C(C)(C)C)cc(C(C)(C)C)c2OP(Cl)Oc2c1cc(C(C)(C)C)cc2C(C)(C)C (configuration not stated)	194 to 198 °C
Cc1cc(O)ccc1-c1c(C=O)sc(-c2ccc(O)c(F)c2)c1C	227 to 230 °C
COc1cccc(C2CC(=O)N(c3ccnc(NC(=O)NCc4ccccn4)c3)C2)c1 (configuration not stated)	189 to 190 °C
CS(=O)(=O)c1ccccc1C#N	105 to 106 °C
COc1ccc([C@H]2[C@@H](c3ccccc3)C2(Cl)Cl)cc1 (relative stereo)	59 to 60 °C
CC(O)c1ccc(-c2ccc3c(c2)CC(C(=O)O)O3)cc1 (configuration not stated)	155 to 157 °C
CNC(=C[N+](=O)[O-])NCCSCc1csc(CN2CCCCC2)n1	100 to 103 °C
CCOCC(=Nc1ccc(Cl)cc1C(F)(F)F)n1ccnc1	49 to 52 °C

Structure (SMILES)	melting point
CCCOCC(=O)c1ccc([N+](=O)[O-])cc1	49 to 50 °C
Cc1cc(-n2ccnc2)c2cccc(OCc3c(Cl)ccc(S(=O)(=O)N4CCC[C@H]4C(=O)N4CCOCC4)c3Cl)c2n1	50 °C
CC(C)OCCOc1c(-c2ccc(S(C)(=O)=O)cc2)cnn(-c2ccc(F)c(F)c2)c1=O	105 to 107 °C
Cc1c(-c2ccc(O)cc2O)c(=O)oc2cc(O)ccc12	282 to 283 °C
CCOC(=O)c1cc(NCc2ccccc2)c(Nc2cccc(OC)c2)c(S(N)(=O)=O)c1	149 to 152 °C
COc1ccc(C2=CCN(Cc3n[nH]c4c(F)c(F)ccc34)CC2)cc1	195 to 197 °C
CS(=O)(=O)c1ccc([C@@H](CC2CCC(=O)CC2)C(=O)O)cc1Cl	129 to 131 °C
Cn1c(CC(=O)O)ccc1C(=O)c1ccccc1	144 to 145 °C
Cc1ccccc1-c1cc(C(F)(F)F)n2cnc(C#N)c2n1	151 °C
O=C(CN1C(=O)c2ccccc2C1=O)c1ncc(C(F)(F)F)cc1Cl	162 °C
CCN(CC)C(=O)CCc1nc(-c2cccc(C(F)(F)F)c2)nc2ccccc12	115 °C
Cc1cc2c3c(ccc2[nH]1)OCC(CN1CC=C(c2c[nH]c4ccccc24)CC1)O3 (configuration not stated)	212 to 215 °C
CCOC(=O)c1c(CCl)nc2cc(OC)c(OC)cc2c1-c1ccc(Cl)cc1	153 to 154 °C
Cc1cc2oc(=O)c3c(c2cc1C)CCN(CCN1CC2CCC(CC2)C1)C3	174 to 175 °C
CN(C)C1(c2cccc(F)c2)CCC2(OCCc3c2[nH]c2ccccc32)C(CNC(=O)C=Cc2cccc(-c3ccccc3)c2)C1 (configuration not stated)	134 to 140 °C
O=c1c2ccccc2nc(-c2cc(-c3ccccc3)c(N3CCOCC3)s2)n1-c1ccccc1	218 to 220 °C
CC(C)(C)OC(=O)N1CCC(C(=O)c2nc3ccccc3[nH]2)CC1	226 to 228 °C

Now from value to molecule:

melting point	Structure (SMILES)
202 to 203 °C	Nc1ncc(-c2cnc3ccc(-c4ccc(OCC5(NC(=O)OCc6ccccc6)COC5)cc4)nn23)cc1C(F)(F)F
225 to 227 °C	CS(=O)(=O)Nc1ccc(N2CCN(c3cc(N)ccn3)CC2)cc1
134 to 137 °C	COC(=O)c1ccc(Cl)cc1NC(=O)CSc1ccc([N+](=O)[O-])cc1
205 to 209 °C	CCCCOCCOc1ccc(-c2cc3c4c(c2)OCCN4CCCC(C(=O)O)=C3)cc1
163 to 164 °C	CC1(C)C=C(C(=O)NCCC#N)c2cc(C(F)(F)C(F)(F)F)ccc2O1
281 to 283 °C	CCCCOC(=O)c1ccc(Nc2ncc(C(=O)OCC)c(=O)[nH]2)cc1
245 to 247 °C	NC(=O)NC(=O)c1ccncc1
184 °C	CN1C2CCC1CC(N(C)S(=O)(=O)c1ccc(Nc3nccc(Nc4ccc(F)cc4)n3)cc1)C2 (configuration not stated)
80 to 82 °C	CC(C)(C)NS(=O)(=O)c1cccs1
69 to 70 °C	CCCc1cc(CP(=O)(OC)OC)c2c(CP(=O)(OC)OC)cccc2c1OC
106 to 108 °C	CCCc1c(OCCCCCCc2ccc(C(C)(C)C)c(OC)c2OC)ccc(C(=O)OCc2ccccc2)c1O
225 to 229 °C	CCC(CC)c1ccc(Cl)c2nc3n(c12)CCN3c1ccc(C(N)=O)cc1Cl
263 to 265 °C	CC(C)Cn1cnc2c(N)nc3cccc(-c4ccccc4)c3c21
235 to 236 °C	O=c1c(CCO)c(O)c2cccnc2n1-c1ccccc1
161 to 162 °C	O=C(NCc1cccnc1)c1sc(N2CCN(Cc3ccc(F)cc3)C2=O)nc1C(F)(F)F
108 to 110 °C	CC1CCCN1CC=CC(=O)Nc1cc2c(Nc3ccc(F)c(Cl)c3)ncnc2cc1OCC1CC1 (configuration not stated)

melting point	Structure (SMILES)
226 to 228 °C	O=C(CN1CCSCC1)N1CCN(Cc2ccc3c(c2)-c2[nH]nc(-c4ccsc4)c2C3)CC1
150 °C	O=C(O)c1c(Cl)nc(Cl)nc1Cl
68 to 70 °C	C#CCOc1cc(-c2ncc(C(F)(F)F)cc2F)c(F)cc1Cl
219 to 222 °C	O=c1[nH]c(C(F)(F)F)c(Br)c(=O)n1-c1c(Cl)cc(Cl)cc1Cl
70 °C	O=S1(=O)CCCN1CCc1ccncc1
136 to 138 °C	CS(=O)(=O)c1ccc(-n2cnc(Cl)c2-c2ccc(OC(F)(F)F)cc2)cc1
222 to 225 °C	CCCCCc1cc2c(nc(O)n2CC2CCN(S(=O)(=O)CC)CC2)c(N)n1
115 to 117 °C	Cc1cccc(NS(=O)(=O)c2cc(S(=O)(=O)Nc3cccc(C)c3)c3cc(O)ccc3c2)c1
106 to 107 °C	C#CCN(C(=O)c1cnc(Cl)nc1C(F)(F)F)S(=O)(=O)c1cccc(Cl)c1
148 to 150 °C	CC1=C(C(=O)OCCN(C)Cc2ccccc2)C(c2ccccc2C(F)(F)F)c2c(ccnc2OCC(C)C)N1 (configuration not stated)
59 to 64 °C	FC(F)(F)Sc1cc[nH]c1-c1ccc(Cl)cc1
150 °C	Cc1ccc(S(=O)(=O)N2[C@@H](c3nn[nH]n3)CC[C@H]2c2ccc(F)cc2)cc1 (racemic)
157 to 160 °C	NC(=O)c1cnn2c1NCC=C2c1cccc(C(F)(F)F)c1
274 °C	Nn1cc(C(=O)O)c(=O)c2cc(F)c(Cl)cc21
240 to 245 °C	O=c1ccc(S(=O)(=O)c2cc3cc(Cl)cc(Cl)c3o2)n[nH]1
150 °C	CC1(C)C(C(=O)O)C1C(Br)C(Br)(Br)Br (configuration not stated)
